Test results taken from ChEMBL document CHEMBL4425121, “Discovery of Substituted 1H-Pyrazolo[3,4-b]pyridine Derivatives as Potent and Selective FGFR Kinase Inhibitors” (ACS Med Chem Lett, 2016).

Tested on: not listed separately
Assay: Oral bioavailability in ICR mouse at 12.5 mg/kg administered as gavage by LC-MS/MS analysis
Assay type: ADME, organism-based
Conditions: in vivo

bioavailability [%]	SMILES
40.2	COc1cc(OC)c(Cl)c(-c2ccc3c(NC(=O)c4ccc(N5CCCN(C)CC5)cc4)n[nH]c3n2)c1Cl
74.7	COc1cc(CCc2cc(NC(=O)c3ccc(N4C[C@@H](C)N[C@@H](C)C4)cc3)n[nH]2)cc(OC)c1 [FEXAGRATINIB]
52.3	COc1cc(OC)c(Cl)c(-c2ccc3c(NC(=O)c4ccc(N5CCN(CCO)CC5)cc4)n[nH]c3n2)c1Cl

Target: Fibroblast growth factor receptor 1 (Homo sapiens, UniProt P11362)
Sequence (P11362 whole entry): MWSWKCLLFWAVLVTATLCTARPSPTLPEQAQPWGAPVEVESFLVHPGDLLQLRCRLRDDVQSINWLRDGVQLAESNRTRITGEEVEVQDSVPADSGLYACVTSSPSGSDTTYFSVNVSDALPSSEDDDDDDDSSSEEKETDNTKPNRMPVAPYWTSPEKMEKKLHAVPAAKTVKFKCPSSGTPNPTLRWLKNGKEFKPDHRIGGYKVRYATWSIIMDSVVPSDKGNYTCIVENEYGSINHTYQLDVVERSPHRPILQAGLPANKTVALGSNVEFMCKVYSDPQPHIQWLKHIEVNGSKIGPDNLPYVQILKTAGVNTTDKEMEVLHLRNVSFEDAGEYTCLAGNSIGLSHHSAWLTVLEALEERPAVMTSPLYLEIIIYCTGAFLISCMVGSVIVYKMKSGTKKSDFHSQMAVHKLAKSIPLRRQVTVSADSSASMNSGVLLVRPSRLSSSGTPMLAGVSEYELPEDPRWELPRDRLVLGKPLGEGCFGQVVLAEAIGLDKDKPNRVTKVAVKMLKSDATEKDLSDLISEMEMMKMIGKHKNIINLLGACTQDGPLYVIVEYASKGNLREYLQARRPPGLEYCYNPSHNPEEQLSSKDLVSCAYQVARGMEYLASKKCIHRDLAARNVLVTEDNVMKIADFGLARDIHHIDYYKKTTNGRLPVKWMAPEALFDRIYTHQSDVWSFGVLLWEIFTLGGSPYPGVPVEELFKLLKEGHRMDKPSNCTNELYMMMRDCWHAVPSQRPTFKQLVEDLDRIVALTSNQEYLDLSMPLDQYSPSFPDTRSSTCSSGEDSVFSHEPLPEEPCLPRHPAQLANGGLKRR
Assay: Inhibition of recombinant human FGFR1 using poly (Glu,Tyr)4:1 as substrate incubated for 60 mins by ELISA
Conditions: not given

IC50 [nM]	SMILES
7.2	COc1cc(OC)c(Cl)c(-c2ccc3c(NC(=O)c4ccc(N5CCCN(C)CC5)cc4)n[nH]c3n2)c1Cl
0.3	COc1cc(OC)c(Cl)c(-c2ccc3c(NC(=O)c4ccc(N5CCN(CCO)CC5)cc4)n[nH]c3n2)c1Cl

Tested on: not listed separately
Assay: Volume of distribution in ICR mouse at 2 mg/kg, iv by LC-MS/MS analysis
Assay type: ADME, organism-based
Conditions: in vivo

Vd [L/kg]	SMILES
5.43	COc1cc(OC)c(Cl)c(-c2ccc3c(NC(=O)c4ccc(N5CCCN(C)CC5)cc4)n[nH]c3n2)c1Cl
3.18	COc1cc(CCc2cc(NC(=O)c3ccc(N4C[C@@H](C)N[C@@H](C)C4)cc3)n[nH]2)cc(OC)c1 [FEXAGRATINIB]
10	COc1cc(OC)c(Cl)c(-c2ccc3c(NC(=O)c4ccc(N5CCN(CCO)CC5)cc4)n[nH]c3n2)c1Cl

Tested on: RT-112
Assay: Antiproliferative activity against human RT112 cells after 72 hrs by CCK-8 assay
Assay type: functional, cell-based
Conditions: RT-112, 72 h

SMILES	IC50 [nM]
COc1cc(CCc2cc(NC(=O)c3ccc(N4C[C@@H](C)N[C@@H](C)C4)cc3)n[nH]2)cc(OC)c1 [FEXAGRATINIB]	0.6

Tested on: not listed separately
Assay: Half life in ICR mouse at 2 mg/kg, iv by LC-MS/MS analysis
Assay type: ADME, organism-based
Conditions: in vivo

half-life [h]	SMILES
3.47	COc1cc(OC)c(Cl)c(-c2ccc3c(NC(=O)c4ccc(N5CCCN(C)CC5)cc4)n[nH]c3n2)c1Cl
2.29	COc1cc(CCc2cc(NC(=O)c3ccc(N4C[C@@H](C)N[C@@H](C)C4)cc3)n[nH]2)cc(OC)c1 [FEXAGRATINIB]
3.74	COc1cc(OC)c(Cl)c(-c2ccc3c(NC(=O)c4ccc(N5CCN(CCO)CC5)cc4)n[nH]c3n2)c1Cl

Tested on: not listed separately
Assay: Antiproliferative activity against human KATO III cells after 72 hrs by CCK-8 assay
Assay type: functional, cell-based
Conditions: not given

SMILES	IC50 [nM]
COc1cc(CCc2cc(NC(=O)c3ccc(N4C[C@@H](C)N[C@@H](C)C4)cc3)n[nH]2)cc(OC)c1 [FEXAGRATINIB]	20.2

Tested on: not listed separately
Assay: Cmax in ICR mouse at 12.5 mg/kg administered as oral gavage by LC-MS/MS analysis
Assay type: ADME, organism-based
Set-up: dose 12.5 mg/kg, route oral
Conditions: in vivo

Cmax [µg/mL]	SMILES
0.5	COc1cc(OC)c(Cl)c(-c2ccc3c(NC(=O)c4ccc(N5CCCN(C)CC5)cc4)n[nH]c3n2)c1Cl
1.35	COc1cc(CCc2cc(NC(=O)c3ccc(N4C[C@@H](C)N[C@@H](C)C4)cc3)n[nH]2)cc(OC)c1 [FEXAGRATINIB]
0.802	COc1cc(OC)c(Cl)c(-c2ccc3c(NC(=O)c4ccc(N5CCN(CCO)CC5)cc4)n[nH]c3n2)c1Cl

Tested on: not listed separately
Assay: Clearance in ICR mouse at 2 mg/kg, iv by LC-MS/MS analysis
Assay type: ADME, organism-based
Conditions: in vivo

clearance [L/h/kg]	SMILES
1.08	COc1cc(OC)c(Cl)c(-c2ccc3c(NC(=O)c4ccc(N5CCCN(C)CC5)cc4)n[nH]c3n2)c1Cl
0.963	COc1cc(CCc2cc(NC(=O)c3ccc(N4C[C@@H](C)N[C@@H](C)C4)cc3)n[nH]2)cc(OC)c1 [FEXAGRATINIB]
1.86	COc1cc(OC)c(Cl)c(-c2ccc3c(NC(=O)c4ccc(N5CCN(CCO)CC5)cc4)n[nH]c3n2)c1Cl

Tested on: not listed separately
Assay: AUC(0 to infinity) in ICR mouse at 12.5 mg/kg administered as oral gavage by LC-MS/MS analysis
Assay type: ADME, organism-based
Set-up: dose 12.5 mg/kg, route oral, time infinity
Conditions: in vivo

AUC(0-inf) [µg·h/mL]	SMILES
4.62	COc1cc(OC)c(Cl)c(-c2ccc3c(NC(=O)c4ccc(N5CCCN(C)CC5)cc4)n[nH]c3n2)c1Cl
9.13	COc1cc(CCc2cc(NC(=O)c3ccc(N4C[C@@H](C)N[C@@H](C)C4)cc3)n[nH]2)cc(OC)c1 [FEXAGRATINIB]
3.51	COc1cc(OC)c(Cl)c(-c2ccc3c(NC(=O)c4ccc(N5CCN(CCO)CC5)cc4)n[nH]c3n2)c1Cl

Tested on: not listed separately
Assay: Cmax in ICR mouse at 2 mg/kg, iv by LC-MS/MS analysis
Assay type: ADME, organism-based
Set-up: dose 2 mg/kg, route intravenous
Conditions: in vivo

Cmax [µg/mL]	SMILES
0.87	COc1cc(OC)c(Cl)c(-c2ccc3c(NC(=O)c4ccc(N5CCCN(C)CC5)cc4)n[nH]c3n2)c1Cl
1.88	COc1cc(CCc2cc(NC(=O)c3ccc(N4C[C@@H](C)N[C@@H](C)C4)cc3)n[nH]2)cc(OC)c1 [FEXAGRATINIB]
0.796	COc1cc(OC)c(Cl)c(-c2ccc3c(NC(=O)c4ccc(N5CCN(CCO)CC5)cc4)n[nH]c3n2)c1Cl

Tested on: SNU-16
Assay: Antiproliferative activity against human SNU16 cells after 72 hrs by CCK-8 assay
Assay type: functional, cell-based
Conditions: SNU-16, 72 h

IC50 [nM]	SMILES
1.2	COc1cc(CCc2cc(NC(=O)c3ccc(N4C[C@@H](C)N[C@@H](C)C4)cc3)n[nH]2)cc(OC)c1 [FEXAGRATINIB]

Tested on: KG-1
Assay: Antiproliferative activity against human KG1 cells after 72 hrs by CCK-8 assay
Assay type: functional, cell-based
Conditions: KG-1, 72 h

SMILES	IC50 [nM]
COc1cc(CCc2cc(NC(=O)c3ccc(N4C[C@@H](C)N[C@@H](C)C4)cc3)n[nH]2)cc(OC)c1 [FEXAGRATINIB]	< 0.2

Tested on: NCI-H1581
Assay: Antitumor activity against human NCI-H1581 cells xenografted in nude mouse assessed as tumor growth inhibition at 12.5 mg/kg, po qd administered for 21 days
Assay type: functional
Conditions: 504 h, read-out: TGI

SMILES	inhibition in vivo at 12.5 mg/kg [%]
COc1cc(CCc2cc(NC(=O)c3ccc(N4C[C@@H](C)N[C@@H](C)C4)cc3)n[nH]2)cc(OC)c1 [FEXAGRATINIB]	77.1

Tested on: NCI-H1581
Assay: Antiproliferative activity against human NCI-H1581 cells after 72 hrs by CCK-8 assay
Assay type: functional, cell-based
Conditions: NCI-H1581, 72 h

IC50 [nM]	SMILES
1.3	COc1cc(OC)c(Cl)c(-c2ccc3c(NC(=O)c4ccc(N5CCCN(C)CC5)cc4)n[nH]c3n2)c1Cl
37.9	COc1cc(CCc2cc(NC(=O)c3ccc(N4C[C@@H](C)N[C@@H](C)C4)cc3)n[nH]2)cc(OC)c1 [FEXAGRATINIB]
< 0.5	COc1cc(OC)c(Cl)c(-c2ccc3c(NC(=O)c4ccc(N5CCN(CCO)CC5)cc4)n[nH]c3n2)c1Cl

Tested on: not listed separately
Assay: AUC(0 to infinity) in ICR mouse at 2 mg/kg, iv by LC-MS/MS analysis
Assay type: ADME, organism-based
Set-up: dose 2 mg/kg, time infinity, route intravenous
Conditions: in vivo

AUC(0-inf) [µg·h/mL]	SMILES
1.84	COc1cc(OC)c(Cl)c(-c2ccc3c(NC(=O)c4ccc(N5CCCN(C)CC5)cc4)n[nH]c3n2)c1Cl
2.08	COc1cc(CCc2cc(NC(=O)c3ccc(N4C[C@@H](C)N[C@@H](C)C4)cc3)n[nH]2)cc(OC)c1 [FEXAGRATINIB]
1.08	COc1cc(OC)c(Cl)c(-c2ccc3c(NC(=O)c4ccc(N5CCN(CCO)CC5)cc4)n[nH]c3n2)c1Cl

Tested on: not listed separately
Assay: Protein binding in mouse plasma at 5 uM after 4 hrs by equilibrium dialysis assay
Assay type: ADME, cell-free
Conditions: read-out: PPB (converted)

fraction unbound at 4 h, 5 µM	SMILES
0.004	COc1cc(OC)c(Cl)c(-c2ccc3c(NC(=O)c4ccc(N5CCCN(C)CC5)cc4)n[nH]c3n2)c1Cl
0.007	COc1cc(CCc2cc(NC(=O)c3ccc(N4C[C@@H](C)N[C@@H](C)C4)cc3)n[nH]2)cc(OC)c1 [FEXAGRATINIB]
0.005	COc1cc(OC)c(Cl)c(-c2ccc3c(NC(=O)c4ccc(N5CCN(CCO)CC5)cc4)n[nH]c3n2)c1Cl

Tested on: not listed separately
Assay: Half life in ICR mouse at 12.5 mg/kg administered as oral gavage by LC-MS/MS analysis
Assay type: ADME, organism-based
Conditions: in vivo

half-life [h]	SMILES
2.9	COc1cc(OC)c(Cl)c(-c2ccc3c(NC(=O)c4ccc(N5CCCN(C)CC5)cc4)n[nH]c3n2)c1Cl
2.55	COc1cc(CCc2cc(NC(=O)c3ccc(N4C[C@@H](C)N[C@@H](C)C4)cc3)n[nH]2)cc(OC)c1 [FEXAGRATINIB]
3.38	COc1cc(OC)c(Cl)c(-c2ccc3c(NC(=O)c4ccc(N5CCN(CCO)CC5)cc4)n[nH]c3n2)c1Cl
